Experimental data: patent EP0304156A1, “Cyclohept b indolealkanoic acids” (MERCK FROSST CANADA INC., priority 1987, dated 1989)
Values after ≈ are worked out from the molar mass of the structure shown.

Assays:
Human platelets = assay: Inhibition of induced threshold aggregation of human platelets (agonist U44069); assay type: cell-based; details: human platelet rich plasma, aggregating agent U44069; read-out: Inhibition of platelet aggregation (IC50 in mg/ml)
Experimental: Inhibition of Induced Threshold Aggregation of Human Platelets
Human platelet rich plasma (PRP) is prepared from venous blood of male volunteers who have taken no medication for ten days prior to test. Blood is transferred into plastic centrifuge tubes containing 3.8% Trisodium Citrate in 0.9% NaCl (in a ratio of blood to anticoagulant of 9:1), mixed by gentle inversion, and centrifuged at room temperature for ten minutes at 116 g. The supernatant (PRP) is transferred into plastic tubes. Platelet poor plasma (PPP) is obtained by centrifuging the residual blood cells at 4000 g for ten minutes. PRP is left to stand at least one half hour prior to testing.
Platelet Aggregation is measured using a Payton Aggregometer and Recorder. Following calibration of the instrument, a cuvette containing PRP (225 microliters) is incubated for three minutes at 37°C. Drug vehicle (control), or a drug concentration is then added in a volume of 0.5 microliter. After one minute, the aggregating agent (U44069, 9,11-dideoxy-9a,11a-epoxymethano PGF2a) is added to the cuvette in a volume of 25 microliters. Recording is continued until the maximal response is obtained.
The threshold (approximately 20 - 30% of maximum) aggregation concentration of the agonist to be used is first determined in the presence of the drug vehicle (control). Test compounds are then assayed at 10 or 30 micrograms/ml initially, and if active, are further tested in order to determine the concentration range at which 20-80% of the threshold aggregatory response is inhibited. All drugs are dissolved in dimethylsulfoxide.
The height of the aggregation response (measured in divisions of the recorder paper, 1 division = 2.5 mm) in the presence of the drug is recorded, and calculated as percent inhibition of the mean height of the control threshold responses. The IC₅₀ (drug concentration which inhibits 50% of the aggregatory response) is obtained by regression analysis.

[1] = tested on: Guinea Pig Tracheal Chain; assay: Estimation of pA2 values in guinea pig tracheal chain (contractile agonist U-44069); design: species or system guinea pigs; details: for Kb: Cavia porcellus, 5 min, guinea pig tracheal chain, agonist U-44069
Description: Estimation of pA₂ Values in Guinea Pig Tracheal Chain
Male albino Hartley strain guinea pigs (300-350 gm) were sacrificed by a blow to the head and exsanguinated. The trachea was removed, freed of extraneous tissue and sectioned into rings of 1-2 mm thickness. Five rings were tied together in series, ensuring that the tracheal muscle lay in the same vertical plane, and the cartilage of each ring then separated at a point directly opposite the muscle. The chains were suspended under 1 gm resting tension in modified Krebs solution (NaCl, 6.87; NaHCO₃, 2.1; dextrose, 2.1; KCl, 0.32; CaCl₂, 0.28; MgSO₄, 7H₂O, 0.11; KH₂PO₄, 0.16; gm/L: equilibrated with 5% CO₂ in O₂ for 1 hour) containing indomethacin (1.4 x 10-⁵M) to suppress endogenous protaglandin synthesis, Organ bath temperature was maintained at 37°C and 5% CO₂ in O₂ diffused continously. Isometric tension changes were recorded from a Gould-Statham (UTC 2) force displacement transducer connected to a Beckman Type R Dynograph. For assay purposes initial maximal contractions were elicited with a high concentration of the contractile agonist [U-44069, 9.11-dideoxy-9a,11a-epoxymethano PGF2a] and the tissue sub sequently washed at intervals until tension returned to baseline. Agonist dose response curves were obtained using a cumulative-dose schedule (4-8 doses) and the preparations then washed at regular intervals until baseline tension was recorded. After an appropriate interval (1-1.5 hrs) agonist dose response curves were repeated in the presence of antagonist drug concentrations. […] EC₅₀ values were obtained by regression analysis and used to calculate 'apparent' and Schild Plot pA₂ values by the method of Tallarida and Murray 1981.

[2] = relative to compound 2 (so in the source)

Row | Structure (SMILES) | IC50 (Human platelets) | Kb [1] | pA2 lower than that of compound 2 [1, 2] | potency factor corresponding to the pA2 difference [1, 2]
1 | COc1ccc2c(c1)c1c(n2Cc2ccc(Cl)cc2)CC(CC(=O)O)CC1 (stereo not shown) [Compound A, reference compound] | 3.5 µg/mL (≈ 9.12 µM) | 158 nM | 1.7 log units | 15
2 | O=C(O)CC1CCCCc2c1c1cc(F)ccc1n2Cc1ccc(Cl)cc1 (stereo not shown) [Compound 2, 2-Fluoro-5-(p-chlorobenzyl)-5,6,7,8,9,10-hexahydrocyclo hept[b]indole-10-acetic acid] | 4.5 µg/mL (≈ 11.7 µM) | 42.7 nM |  | 
3 | O=C(O)CC1CCCc2c(n(Cc3ccc(Cl)cc3)c3ccc(F)cc23)C1 (stereo not shown) [Compound 1, 2-Fluoro-5-(p-chlorobenzyl)-5,6,7,8,9,10-hexahydrocyclo hept[b]indole-7-acetic acid] | 0.05 µg/mL (≈ 0.13 µM) | 3.16 nM |  | 
4 | CS(=O)(=O)c1ccc(Cn2c3c(c4cc(F)cc(F)c42)CCCC(CC(=O)O)C3)cc1 (stereo not shown) [Compound 36, 2,4-Difluoro-5(p-methylsulfonylbenzyl)-5,6,7,8,9,10-hexahydrocyclohept[b]indole-7-acetic acid] | 0.012 µg/mL (≈ 0.0268 µM) | 8.32 nM |  | 
5 | O=C(O)CC1CCCCc2c1n(Cc1ccc(Cl)cc1)c1ccc(F)cc21 (stereo not shown) [Compound 4, 2-Fluoro-5-(p-chlorobenzyl)-5,6,7,8,9,10-hexahydrocyclohept[b]indole-6-acetic acid] | 0.015 µg/mL (≈ 0.0389 µM) | 1.35 nM |  | 
6 | COc1ccc2c(c1)c1c(n2Cc2ccc(Cl)cc2)CC(C(=O)O)CC1 (stereo not shown) [Compound B, reference compound] | > 30 µg/mL | 158 nM |  | 
7 | O=C(O)C1CCCc2c(n(Cc3ccc(Cl)cc3)c3ccc(F)cc23)C1 (stereo not shown) [Compound 3, 2-Fluoro-5-(p-chlorobenzyl)-5,6,7,8,9,10-hexahydrocyclo hept[b]indole-7-carboxylic acid] | 7.46 µg/mL (≈ 20.1 µM) | 129 nM |  | 
